16 compounds from EP4563146A1 (IRBM S.P.A., priority 2023, dated 2025) can be followed below.

Assay [1] addresses T1, West Nile Virus (WNV) NS2B-NS3 protease (West Nile virus, UniProt Q9Q6P4).
T1 construct: NS2B1423-1470); purchased R&D 2907-SE-020
As to the kind of experiment: WNV protease inhibition assay. The format is biochemical. Conditions: Table 4; letter codes for IC50. An excerpt:
WNV protease inhibition assay

In assay [2] the test system is ZIKV replicon. As to the kind of experiment: ZIKV replication inhibition assay (NanoLuc replicon in Vero cells). Conditions: Zika virus, Vero, 72 h. Background: A replicon is a self-replicating genome or part of one, used to study replication in cells.
The mark [3] stands for this setting: read-out: ZIKA Cell_Nanoluc, Vero cells with stable ZIKV replicon, 72 h, Nano-Glo readout.

Like-named read-outs stand apart in the source and are kept apart here.

T1 sequence (Q9Q6P4 1423-1470): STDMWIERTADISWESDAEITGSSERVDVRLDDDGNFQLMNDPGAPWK
T1 sequence (Q9Q6P4 1506-1689): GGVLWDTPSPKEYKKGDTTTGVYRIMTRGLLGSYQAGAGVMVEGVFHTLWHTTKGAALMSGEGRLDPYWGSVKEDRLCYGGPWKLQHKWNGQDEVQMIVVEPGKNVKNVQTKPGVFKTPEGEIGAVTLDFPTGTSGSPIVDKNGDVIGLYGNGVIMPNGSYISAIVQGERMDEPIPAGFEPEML

In general, IC50 refers to the concentration that gives 50% inhibition. A low value points to greater potency in that assay. In assay [1], `CCC(C(=O)Nc1cc(NC(=O)[N-]c2c[n+]([C@H]3CC[C@H](CN(C)C)CC3)no2)cc(C(F)(F)F)c1)c1ccccc1` (stereo partly drawn) [Example 165, (3-((1R,4R)-4-((Dimethylamino)methyl)-cyclohexyl)-1,2,3-oxadiazol-3-ium-5-yl)((3-(2-phenylbutanamido)-5-(trifluoromethyl)phenyl)-carbamoyl)amide] yielded a half-inhibitory concentration (IC50) of 100 to 1000 nM. Further, the EC50 in assay [2] (read-out: ZIKA Cell_Nanoluc) was in the range of 100 to 1000 nM.

Consider `CN(C)C[C@H]1CC[C@H]([n+]2cc([N-]C(=O)Nc3cc(NC(=O)Cc4ccccc4C(F)(F)F)cc(C(F)(F)F)c3)on2)CC1` [Example 166, (3-((1R,4R)-4-((Dimethylamino)methyl)-cyclohexyl)-1,2,3-oxadiazol-3-ium-5-yl)((3-(trifluoromethyl)-5-(2-(2-(trifluoromethyl)-phenyl)acetamido)phenyl)carbamoyl)amide], for which the IC50 in assay [1] is 100 to 1000 nM. Besides, the EC50 in assay [2] (read-out: ZIKA Cell_Nanoluc) is 1000 to 20000 nM.

Take `CC(C(=O)N(C)c1cc(NC(=O)[N-]c2c[n+]([C@H]3CC[C@H](CN(C)C)CC3)no2)cc(C(F)(F)F)c1)c1ccccc1` (stereo partly drawn) [Example 167, (3-((1R,4R)-4-((Dimethylamino)methyl)-cyclohexyl)-1,2,3-oxadiazol-3-ium-5-yl)((3-(N-methyl-2-phenylpropanamido)-5-(trifluoromethyl)phenyl)carbamoyl)amide]: the IC50 in assay [1] lay in the range of 100 to 1000 nM. In assay [2] (read-out: ZIKA Cell_Nanoluc), the EC50 fell in the range of 1000 to 20000 nM.

Regarding `CN(C)C[C@H]1CC[C@H]([n+]2cc([N-]C(=O)Nc3cc(NC(=O)Cc4ccccc4Cl)cc(C(F)(F)F)c3)on2)CC1` [Example 168, ((3-(2-(2-Chlorophenyl)acetamido)-5-(trifluoromethyl)phenyl)carbamoyl)(3-((1R,4R)-4-((dimethylamino)methyl)cyclohexyl)-1,2,3-oxadiazol-3-ium-5-yl)amide], in assay [1], the IC50 was < 100 nM. In addition, in assay [2] (read-out: ZIKA Cell_Nanoluc), the EC50 fell in the range of 100 to 1000 nM.

Turning to `CN(C)C[C@H]1CC[C@H]([n+]2cc([N-]C(=O)Nc3cc(NC(=O)Cc4cccc(F)c4F)cc(C(F)(F)F)c3)on2)CC1` [Example 169, ((3-(2-(2,3-Difluorophenyl)acetamido)-5-(trifluoromethyl)phenyl)carbamoyl)(3-((1R,4R)-4-((dimethylamino)methyl)cyclohexyl)-1,2,3-oxadiazol-3-ium-5-yl)amide], the concentration for half-maximal inhibition (IC50) in assay [1] is < 100 nM. Besides, the EC50 in assay [2] (read-out: ZIKA Cell_Nanoluc) is 100 to 1000 nM.

Turning to `C[C@H](C(=O)Nc1cc(NC(=O)[N-]c2c[n+]([C@H]3CC[C@H](CN(C)C)CC3)no2)cc(C(F)(F)F)c1)c1ccccc1` [Example 170, (3-((1R,4S)-4-((Dimethylamino)methyl)-cyclohexyl)-1,2,3-oxadiazol-3-ium-5-yl)((3-((S)-2-phenylpropanamido)-5-(trifluoromethyl)-phenyl)carbamoyl)amide], the 50% inhibitory concentration (IC50) in assay [1] was < 100 nM. Moreover, the EC50 in assay [2] (read-out: ZIKA Cell_Nanoluc) lay in the range of 100 to 1000 nM.

For `Cc1ccccc1CC(=O)Nc1cc(NC(=O)[N-]c2c[n+]([C@H]3CC[C@H](CN(C)C)CC3)no2)cc(C(F)(F)F)c1` [Example 171, (3-((1R,4R)-4-((Dimethylamino)methyl)-cyclohexyl)-1,2,3-oxadiazol-3-ium-5-yl)((3-(2-(o-tolyl)acetamido)-5-(trifluoromethyl)phenyl)-carbamoyl)amide], the half-maximal inhibitory concentration (IC50) in assay [1] was < 100 nM. The EC50 in assay [2] (read-out: ZIKA Cell_Nanoluc) was in the range of 100 to 1000 nM.

For `CN(C)C[C@H]1CC[C@H]([n+]2cc([N-]C(=O)Nc3cc(N(C)C(=O)Cc4ccccc4)cc(C(F)(F)F)c3)on2)CC1` [Example 172, (3-((1R,4R)-4-((Dimethylamino)methyl)-cyclohexyl)-1,2,3-oxadiazol-3-ium-5-yl)((3-(N-methyl-2-phenylacetamido)-5-(trifluoromethyl)-phenyl)carbamoyl)amide], in assay [1], the 50% inhibitory concentration (IC50) is 100 to 1000 nM. Also, the EC50 in assay [2] (read-out: ZIKA Cell_Nanoluc) was in the range of 1000 to 20000 nM.

Take `CN(C)[C@@H]1CCC[C@@H]([n+]2cc([N-]C(=O)Nc3cc(NC(=O)Cc4ccccc4)cc(C(F)(F)F)c3)on2)C1` [Example 173, (3-((1R,3R)-3-(Dimethylamino)cyclohexyl)-1,2,3-oxadiazol-3-ium-5-yl)((3-(2-phenylacetamido)-5-(trifluoromethyl)phenyl)-carbamoyl)amide]: the half-maximal inhibitory concentration (IC50) in assay [1] was < 100 nM. The EC50 in assay [2] (setting [3]) was in the range of 100 to 1000 nM.

In assay [1], `CN(C)[C@H]1CCC[C@@H]([n+]2cc([N-]C(=O)Nc3cc(NC(=O)Cc4ccccc4)cc(C(F)(F)F)c3)on2)C1` [Example 174, (3-((1R,3S)-3-(Dimethylamino)cyclohexyl)-1,2,3-oxadiazol-3-ium-5-yl)((3-(2-phenyl-acetamido)-5-(trifluoromethyl)phenyl)-carbamoyl)amide] came in with an IC50 of 100 to 1000 nM. Also, the EC50 in assay [2] (setting [3]) was in the range of 1000 to 20000 nM.

Regarding `C[C@@H](C(=O)Nc1cc(NC(=O)[N-]c2c[n+]([C@H]3CC[C@H](CN(C)C)CC3)no2)cc(C(F)(F)F)c1)c1ccccc1` [Example 175, (3-((1R,4R)-4-((Dimethylamino)methyl)-cyclohexyl)-1,2,3-oxadiazol-3-ium-5-yl)((3-((R)-2-phenylpropanamido)-5-(trifluoromethyl)-phenyl)carbamoyl)amide], the IC50 in assay [1] was < 100 nM. Further, in assay [2] (read-out: ZIKA Cell_Nanoluc), the EC50 was 1000 to 20000 nM.

Compound `CN(C)C[C@H]1CC[C@H]([n+]2cc([N-]C(=O)Nc3cc(NC(=O)Cc4cccc(Cl)c4)cc(C(F)(F)F)c3)on2)CC1` [Example 176, ((3-(2-(3-Chlorophenyl)acetamido)-5-(trifluoromethyl)phenyl)carbamoyl)(3-((1R,4R)-4-((dimethylamino)methyl)cyclohexyl)-1,2,3-oxadiazol-3-ium-5-yl)amide] yielded an IC50 in assay [1] of 100 to 1000 nM. In addition, the EC50 in assay [2] (read-out: ZIKA Cell_Nanoluc) fell in the range of 1000 to 20000 nM.

In assay [1], `CN(C)C[C@H]1CC[C@H]([n+]2cc([N-]C(=O)Nc3cc(NC(=O)C4CCCc5ccccc54)cc(C(F)(F)F)c3)on2)CC1` (stereo partly drawn) [Example 177, (3-((1R,4R)-4-((Dimethylamino)methyl)-cyclohexyl)-1,2,3-oxadiazol-3-ium-5-yl)((3-(1,2,3,4-tetrahydronaphthalene-1-carboxamido)-5-(trifluoromethyl)phenyl)carbamoyl)amide] came in with an IC50 of 100 to 1000 nM. The EC50 in assay [2] (read-out: ZIKA Cell_Nanoluc) lay in the range of 1000 to 20000 nM.

`O=C([N-]c1c[n+](C[C@H]2CC[C@@H](c3cncnc3)CC2)no1)Nc1cccc(C(F)(F)F)c1` [Example 179, (3-(((1S,4S)-4-(Pyrimidin-5-yl)cyclohexyl)-methyl)-1,2,3-oxadiazol-3-ium-5-yl)((3-(trifluoromethyl)phenyl)carbamoyl)amide]: the half-maximal inhibitory concentration (IC50) in assay [1] fell in the range of 1000 to 20000 nM. Further, the EC50 in assay [2] (read-out: ZIKA Cell_Nanoluc) is 1000 to 20000 nM.

`O=C([N-]c1c[n+](C[C@H]2CC[C@@H](c3cncnc3)CC2)no1)Nc1ccnc(C(F)(F)F)c1` [Example 182, (3-(((1S,4S)-4-(Pyrimidin-5-yl)cyclohexyl)methyl)-1,2,3-oxadiazol-3-ium-5-yl)((2-(trifluoromethyl)pyridin-4-yl)carbamoyl)amide]: the IC50 in assay [1] lay in the range of 100 to 1000 nM. Also, the EC50 in assay [2] (read-out: ZIKA Cell_Nanoluc) was in the range of 1000 to 20000 nM.

Compound `O=C([N-]c1c[n+](CC23CC(c4cncnc4)(C2)C3)no1)Nc1cccc(C(F)(F)F)c1` [Example 183, (3-((3-(Pyrimidin-5-yl)bicyclo[1.1.1]pentan-1-yl)methyl)-1,2,3-oxadiazol-3-ium-5-yl)((3-(trifluoromethyl)phenyl)carbamoyl)amide] showed an IC50 in assay [1] of 100 to 1000 nM. Further, the EC50 in assay [2] (setting [3]) lay in the range of 100 to 1000 nM.
